Measurements reported in patent publication US20260258016A1, “SUBSTITUTED PYRIDAZINE-3-CARBOXAMIDE COMPOUND SERVING AS TYK2 INHIBITOR” (Guangzhou Fermion Technology Co., Ltd., priority 2022, published 2026).
Where two headings read alike, the source gives them in different places. Blank lines part the entries; values can stand above or below the molecule they belong to.

How the values were obtained:
TYK2 JH2 pseudokinase = TYK2 JH2 pseudokinase (Homo sapiens, UniProt P29597); experiment: In vitro TYK2 JH2 enzyme binding assay (TR-FRET)
TYK2 JH1 = target: T1, TYK2 JH1 (Homo sapiens, UniProt P29597); experiment: TYK2 JH1 kinase inhibition (HTRF); format: biochemical; details: read-out: Inhibition on kinase activity (IC50, μM) TYK2 JHI
T1 construct: 5 μL/well of 2×JAK1 JH1/JAK2 JH1/JAK3 JH1/TYK2 JH1 kinase solutions
T1 sequence (P29597 897-1176 limits assumed): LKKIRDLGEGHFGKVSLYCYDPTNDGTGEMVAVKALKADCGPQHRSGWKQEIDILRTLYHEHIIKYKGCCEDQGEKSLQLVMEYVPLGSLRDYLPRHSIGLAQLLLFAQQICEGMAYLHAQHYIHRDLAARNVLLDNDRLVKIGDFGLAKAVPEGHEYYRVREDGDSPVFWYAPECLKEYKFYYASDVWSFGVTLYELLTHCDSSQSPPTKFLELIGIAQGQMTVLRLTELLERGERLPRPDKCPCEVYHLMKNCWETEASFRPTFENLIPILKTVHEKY
Description: (§1) After the completion of incubation, 5 μL of a mixed solution containing a 2×TK-SUB-biotin substrate and ATP was added to each well, uniformly mixed by centrifugation, and incubated at 25° C. for 45 minutes (JAK1/JAK2) or 60 minutes (JAK3/TYK2). After completion of incubation, 10 μL of an assay mixture (TK Antibody-EU and Streptavidin-XL mixture) was added to each well, uniformly mixed by centrifugation, and incubated at 25° C. for 60 minutes (JAK1/JAK2) or 120 minutes (JAK3/TYK2). After completion of incubation, the solutions were transferred to a 4° C. freezer for incubation overnight, and fluorescence values were read on an Envision 2104 Multilabel Reader, and the IC50 of the compound was calculated using XL-Fit software.

JAK1 JH1 = target: T2, JAK1 JH1 (Homo sapiens, UniProt P23458); experiment: JAK1 JH1 kinase inhibition (HTRF); format: biochemical; details: read-out: Inhibition on kinase activity (IC50, μM) JAKI JHI
T2 construct: 5 μL/well of 2×JAK1 JH1/JAK2 JH1/JAK3 JH1/TYK2 JH1 kinase solutions

JAK2 JH1 = target: T3, JAK2 JH1 (Homo sapiens, UniProt O60674); experiment: JAK2 JH1 kinase inhibition (HTRF); format: biochemical; details: read-out: Inhibition on kinase activity (IC50, μM) JAK2 JHI
T3 construct: 5 μL/well of 2×JAK1 JH1/JAK2 JH1/JAK3 JH1/TYK2 JH1 kinase solutions
Description: as §1

JAK3 JH1 = target: T4, JAK3 JH1 (Homo sapiens, UniProt P52333); experiment: JAK3 JH1 kinase inhibition (HTRF); format: biochemical; details: read-out: Inhibition on kinase activity (IC50, μM) JAK3 JHI
T4 construct: 5 μL/well of 2×JAK1 JH1/JAK2 JH1/JAK3 JH1/TYK2 JH1 kinase solutions
Description: as §1

[1] = tested on: IL-2-induced STAT5 phosphorylation (JAK1/3) in CD3+ cells of human PBMC; experiment: IL-2-induced STAT5 phosphorylation (JAK1/3) in CD3+ cell subpopulations in human PBMC, flow cytometry; format: cell-based; details: IL-2 stimulation 20 min, read-out: IL-2-induced CD3+ pSTAT5 (JAK1/3) in hPBMC (IC50)
Description: Purpose: The purpose of this test case was to test the inhibitory effect of the compound on IL-2-induced STAT5 phosphorylation using protein phosphorylation flow cytometric analysis technology.
Human PBMC cells were pre-incubated with the compounds, STAT5 was induced to phosphorylate under appropriate stimulation conditions, and corresponding cell subpopulations and targets were stained. Flow cytometry was used to read cell data and analyze the strength of phosphorylated antibody signals under different compound concentrations. PBMCs were resuspended and dispensed into a 96-well plate, 62.5 μL/well. 3.5 μL of 20× compound working solutions were added and incubated at 37° C. for 30 minutes. 5 μL of PE mouse anti-human CD3 (BD) was added and incubated for 30 min at 37° C. in the dark. 4 μL of 20×IL-2 (R&D) was added to each well and incubated at 37° C. in the dark for 20 minutes. All cells in the 96-well plate were transferred to a deep-well plate, 400 μL of a fixation working solution (Biolegend) was added to each well, and incubated at room temperature in the dark for 20 minutes. The cells were washed twice with PBS, and 400 μL of Perm Buffer III (BD) was added and incubated at 4° C. in the dark for 40 minutes. The cells were washed twice with PBS, and 100 μL of a STAT5 pY694 antibody working solution (BD) was added and incubated at room temperature for 40 minutes. After washing once with PBS, the cells were resuspended in 200 μL of a staining buffer and transferred to a sample plate. The antibody fluorescence intensity was analyzed using FlowJo software, and the IC50 of the compound was calculated using XL-Fit software.

Sequence of TYK2 JH2 pseudokinase (P29597 589-875 limits assumed): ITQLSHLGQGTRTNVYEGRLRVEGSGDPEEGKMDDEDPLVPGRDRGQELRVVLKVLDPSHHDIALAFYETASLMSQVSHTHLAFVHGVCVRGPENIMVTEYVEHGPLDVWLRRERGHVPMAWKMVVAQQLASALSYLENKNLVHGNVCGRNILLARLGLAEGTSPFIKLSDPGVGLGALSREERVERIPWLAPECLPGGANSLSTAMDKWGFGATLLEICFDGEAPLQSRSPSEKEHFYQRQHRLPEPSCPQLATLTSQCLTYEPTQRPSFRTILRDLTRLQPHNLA
T4 sequence (P52333 822-1111 limits assumed): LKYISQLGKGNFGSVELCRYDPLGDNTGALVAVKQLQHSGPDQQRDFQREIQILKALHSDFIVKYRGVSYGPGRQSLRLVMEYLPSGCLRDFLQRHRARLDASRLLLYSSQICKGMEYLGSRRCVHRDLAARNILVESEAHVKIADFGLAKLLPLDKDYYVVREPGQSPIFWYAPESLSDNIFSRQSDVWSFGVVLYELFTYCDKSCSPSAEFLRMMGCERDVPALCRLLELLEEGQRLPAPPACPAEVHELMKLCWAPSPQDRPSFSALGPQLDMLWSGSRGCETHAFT
T3 sequence (O60674 849-1124 limits assumed): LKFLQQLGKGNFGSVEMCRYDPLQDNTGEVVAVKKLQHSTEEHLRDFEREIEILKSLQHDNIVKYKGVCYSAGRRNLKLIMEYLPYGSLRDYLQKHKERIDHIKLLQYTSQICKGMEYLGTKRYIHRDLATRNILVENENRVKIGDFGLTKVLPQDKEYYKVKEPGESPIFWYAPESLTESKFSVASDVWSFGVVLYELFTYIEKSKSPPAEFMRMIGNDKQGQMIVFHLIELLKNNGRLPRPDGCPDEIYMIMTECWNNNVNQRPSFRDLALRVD
T2 sequence (P23458 875-1153 limits assumed): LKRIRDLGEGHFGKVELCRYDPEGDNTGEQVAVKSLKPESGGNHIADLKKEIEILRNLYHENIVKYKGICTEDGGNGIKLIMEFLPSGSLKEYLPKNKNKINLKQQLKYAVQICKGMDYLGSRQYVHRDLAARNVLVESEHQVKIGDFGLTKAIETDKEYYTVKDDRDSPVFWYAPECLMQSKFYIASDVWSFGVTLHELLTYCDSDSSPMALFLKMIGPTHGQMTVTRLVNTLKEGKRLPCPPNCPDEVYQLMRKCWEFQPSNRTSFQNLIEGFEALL

Molecule: CCONC(=O)c1nnc(NC(=O)C2CC2)cc1Nc1cccc(-c2ncn(CCC(=O)O)n2)c1OC [Compound 8, 3-(3-(3-((6-(Cyclopropylcarboxamido)-3-(ethoxycarbamoyl)pyridazine-4-yl)amino)-2-methoxyphenyl)-1H-1,2,4-triazol-1-yl)propanoic acid]
- IC50 (TYK2 JH2 pseudokinase): 0.29 nM

Molecule: CCONC(=O)c1nnc(NC(=O)C2CC2)cc1Nc1cccc(-c2ncn(CCCC(=O)O)n2)c1OC [Compound 9, 4-(3-(3-((6-(Cyclopropylcarboxamido)-3-(ethoxycarbamoyl)pyridazine-4-yl)amino)-2-methoxyphenyl)-1H-1,2,4-triazol-1-yl)butanoic acid]
- IC50 (TYK2 JH2 pseudokinase): 0.42 nM

Molecule: CCONC(=O)c1nnc(NC(=O)C2CC2)cc1Nc1cccc(-c2ncn(CC(=O)O)n2)c1OC [Compound 7, 2-(3-(3-((6-(Cyclopropylcarboxamido)-3-(ethoxycarbamoyl)pyridazine-4-yl)amino)-2-methoxyphenyl)-1H-1,2,4-triazol-1-yl)acetic acid]
- IC50 (TYK2 JH2 pseudokinase): 0.29 nM

Molecule: BMS-986165 [reference compound]
- IC50 [1]: 409 nM

Molecule: CCONC(=O)c1nnc(NC(=O)C2CC2)cc1Nc1cccc(-c2nc[nH]n2)c1OC [Compound 1, 6-(Cyclopropylcarboxamido)-N-ethoxy-4-((2-methoxy-3-(1H-1,2,4-triazol-3-yl)phenyl)amino)pyridazine-3-carboxamide]
- IC50 (TYK2 JH1): > 10 µM
- IC50 (JAK1 JH1): > 10 µM
- IC50 (JAK2 JH1): > 10 µM
- IC50 (JAK3 JH1): > 10 µM
- IC50 (TYK2 JH2 pseudokinase): 0.21 nM
- IC50 ([1]; 20 min): > 30000 nM

Further molecules by falling IC50 (TYK2 JH2 pseudokinase), results first:

- IC50 (TYK2 JH2 pseudokinase): 0.28 nM
Molecule: CCONC(=O)c1nnc(NC(=O)C2CC2)cc1Nc1cccc(-c2ncn(CCO)n2)c1OC [Compound 10, 6-(Cyclopropylcarboxamide)-N-ethoxy-4-((3-(1-(2-hydroxyethyl)-1H-1,2,4-triazol-3-yl)-2-methoxyphenyl)amino)pyridazine-3-carboxamide]

- IC50 (TYK2 JH2 pseudokinase): 0.26 nM
Molecule: CCONC(=O)c1nnc(NC(=O)C2CC2)cc1Nc1cccc(-c2ncn(CC(F)F)n2)c1OC [Compound 5, 6-(Cyclopropylcarboxamido)-4-((3-(1-(2,2-difluoroethyl)-1H-1,2,4-triazol-3-yl)-2-methoxyphenyl)amino)-N-ethoxypyridazine-3-carboxamide]

- IC50 (TYK2 JH1): > 10 µM
- IC50 (JAK1 JH1): > 10 µM
- IC50 (JAK2 JH1): > 10 µM
- IC50 (JAK3 JH1): > 10 µM
- IC50 (TYK2 JH2 pseudokinase): 0.19 nM
Molecule: CCONC(=O)c1nnc(NC(=O)C2CC2)cc1Nc1cccc(-c2ncn(CCOC)n2)c1OC [Compound 2, 6-(Cyclopropylcarboxamido)-N-ethoxy-4-((2-methoxy-3-(1-(2-methoxyethyl)-1H-1,2,4-triazol-3-yl)phenyl)amino)pyridazine-3-carboxamide]
- IC50 ([1]; 20 min): > 30000 nM

- IC50 (TYK2 JH2 pseudokinase): 0.18 nM
Molecule: CCONC(=O)c1nnc(NC(=O)C2CC2)cc1Nc1cccc(-c2ncn(CCF)n2)c1OC [Compound 4, 6-(Cyclopropylcarboxamido)-N-ethoxy-4-((3-(1-(2-fluoroethyl)-1H-1,2,4-triazol-3-yl)-2-methoxyphenyl)amino)pyridazine-3-carboxamide]
